Legend:
NIH 3T3 fibroblasts = experiment: Cell growth potentiation test (potentiation of mitogenic activity of fetal calf serum, EZ4U cellular proliferation assay); assay type: cell-based; conditions: for Cell growth potentiation relative to minoxidil at 100 μM (%): 0% = base concentration of FCS alone (5% or 3%), 100% = minoxidil at 100 μM; for Cell growth relative to FCS alone (%): 100% = same growth as base concentration of FCS alone
Description: To test for activity in mammalian hair growth stimulation, an in vitro test of cell growth potentiation has been applied to a number of the compounds of the invention and prior art compounds 11901 and 11903. The test involves an assay of the call growth due to potentiation of the mitogenic activity of fetal calf serum (FCS). See WO97/14036. Details of materials, methods and results are as follows.
Tissue culture plastics were obtained from Beckton Dickinson (Cowley, Oxford, UK). NIH 3T3 fibroblasts were obtained from the European collection of animal cell cultures (Salisbury, Wilts, UK). Dulbecco's modified Eagle's medium (DMEM) was obtained from Flow Laboratories (Rickmansworth, Herts, UK). L-Glutamine and fetal calf serum were from Gibco (Paisley, UK).
The EZ4U cell proliferation assay kits were obtained from Cozart Bioscience Ltd (Abingdon, Oxon, UK). All other chemicals were obtained from Sigma Chemical Company Ltd. (Poole, Dorset, UK), and of the highest grade available.
NIH 3T3 fibroblasts were maintained in Dulbecco's modified Eagle's medium supplemented with 10% FCS and 2 mM L-glutamine in 150 cm^2 tissue culture flasks at 37° C. in an atmosphere of 5% CO2/95% air. Antibiotics were omitted. Medium was changed every 3 days, and passages were carried out twice a week before cells reached confluence. Prior to experiments, cells were passaged and plated out to give 10^4 cell/ml in 96-well multi-well plates. Cells were incubated for 24 hours with Dulbecco's modified Eagle's medium supplemented with 10% FCS to aid attachment. This was then removed and the experimental medium added.
Compounds were prepared following a general preparation protocol. This protocol consisted of taking a mass of compound, dissolving in the recommended solvent (40 μl) such that in the final preparation the concentrations of compound and solvent would be 100 μM and 0.1 respectively. In theory this volume was 40 μl, however for accuracy a mass larger than the required mass was dispensed and the solvent volume varied accordingly; only 40 μl of this solution was required for the next stage. The 40 μl volume was then added to a volume of FCS (1.2 ml), such that in the final preparation the concentration of FCS would be 3%. This solution was then added to DMEM containing L-glutamine (2 mM) (18.76 ml). The resulting solution of 20 ml volume was filter stabilised. This solution is now 200 μM in compound, 6% FCS and 0.2% solvent, and so was diluted 1:1 with the DMEM containing L-glutamine. This 100 μM stock could then be diluted serially to provide lower concentrations of the compound of interest. Solutions containing different ratios of compound and FCS were obtained in a similar manner.
This was performed, following the manufacturer's instructions, using an EZ4U assay kit, which is based upon the conversion of tetrazolium salt to coloured formazam derivatives by mitochondria (Hansen et al, 1989). Plates were read on a plate reader (Anthos Labtec HT2), using a measurement filter (450 nm), with a reference filter (620 nm) with a low Shaking density for 5 seconds prior to measurement. Control experiments were made against counting cells in a haemocytometer (sanders et al, 1996). There is some variance of results between different batches of FCS employed.
A series of cell growth potentiation/inhibition tests has been carried out in accordance with the procedure described above on some of the compounds of the invention, on compounds 11901 and 11903 and on minoxidil (a compound well known for its hair growth stimulation effects). Because of some variability of results with different batches of FCS, each compound was tested in a solution of a base concentration of FCS and was compared with minoxidil in a solution of the same base concentration of FCS and with a solution having the same base concentration of FCS alone (no additive), using the same FCS batch in order to provide standardised comparisons for that compound. […]

[1] = system: K+-stimulated isolated rat aorta; experiment: K+-stimulated isolated rat aorta test; conditions: relaxation of contraction triggered by 25 mM KCl in rat aorta rings; asterisk (*) = low activity, only approximate value
Experimental: K^+-stimulated Isolated Rat Aorta Test
Male rats weighing about 300 g are killed painlessly by a blow to the neck and quickly exsanguinated. The thoracic cavity is opened and the aorta is carefully resectioned. It is placed in a Petri dish filled with Krebs solution, and surrounding connective and fatty tissue is removed. Two rings are prepared. The rings are each suspended in an organ bath, They are attached at the bottom to a hook and at the top to an electrical force transducer which is able to measure precisely contractions of 0-10 grams in strength. The measured contractions are amplified by means of a bridge amplifier and recorded with a thermal plotter.
The organ baths are filled with Krebs solution at 37° C. through which an O2/CO2 mixture is bubbled thoroughly and which has the following composition (mmol/1): NaCl 118.4; KCl 4.7; CaCl2 2.5; KH2PO4 1.2; MgSO4 1.2; NaHCO3 25; glucose 11.
The rings are stretched with a basic tone of about 0.5 g, After an equilibration time of about 30 minutes, the rings are caused to undergo contraction by depolarization (addition of 25 mM KCl to the organ bath). The contractions of the rings of aorta, triggered by the depolarization, quickly reach a plateau, As soon as this plateau is reached (“100% value”), the test substance is added to the organ bath, initially at low concentrations, for example 10^−8M, and then in increasing doses at regular intervals, until the contractions reduce or the final concentration of 10^−4M is reached. Each test substance is tested 2-4 times in this way.
For purposes of evaluation, the height of the contractions registered on the plotter paper is measured for each experiment after the action of each test concentration added. The IC50 value can be calculated in this way in relation to the original height of contractions before the addition of substance (100%).

Compound	Cell growth potentiation relative to minoxidil at 100 μM (%) (NIH 3T3 fibroblasts; Compound at 10 μM)	Cell growth potentiation relative to minoxidil at 100 μM (%) (NIH 3T3 fibroblasts; Compound at 100 μM)	IC50 [1]	melting point	Cell growth relative to FCS alone (%) (NIH 3T3 fibroblasts; Compound at 100 μM)	Cell growth relative to FCS alone (%) (NIH 3T3 fibroblasts; Compound at 10 μM)
CC1=C(C)CC2(CC(C)(C)Oc3cc(C#N)sc32)SC1 (stereo not drawn) [Compound 50092, 3′,6,6′,7-Tetrahydro-4′,5,5,5′-tetramethylspiro[5H-thieno[3,2-b]pyran-7,2′-2H-thiopyran]-2-carbonitrile]	214%	71%	~10 µM	148 to 149 °C		
CC1(C)Oc2cc(S(=O)(=O)c3ccccc3)sc2[C@@H](N2CCCC2=O)[C@@H]1O (relative stereo) [Compound 50123, rel-(6S,7S)-6,7-Dihydro-6-hydroxy-5,5-dimethyl-7-(2-oxo-1-pyrrolidinyl)-2-(phenylsulphonyl)-5H-thieno[3,2-b]pyran]	120%		0.026 µM		94%	
CC1=C(C)CC2(CC(C)(C)Oc3cc(S(=O)(=O)c4ccccc4)sc32)SC1 (stereo not drawn) [Compound 50121, 3′,6,6′,7-Tetrahydro-4′,5,5,5′-tetramethyl-2-(phenylsulphonyl)spiro[5H-thieno[3,2-b]pyran-7,2′-2H-thiopyran]]	285%	271%	> 100 µM	175 to 178 °C		
CC1=C(C)C[C@@]2(CC(C)(C)Oc3cc(C#N)sc32)[S@+]([O-])C1 (relative stereo) [Compound 50097, rel-(1′R, 2′S)-3′,6,6′,7-Tetrahydro-4′,5,5′,5-tetramethyl-1′-oxospiro[5H-thieno[3,2-b]pyran-7,2′-2H-thiopyran]-2-carbonitrile]	242%	257%	~10 µM	179 to 183 °C		
CC1(C)CC2(SCCCS2)c2sccc2O1 [Compound 50048, 6′,7′-Dihydro-5′,5′-dimethylspiro[1,3-dithiane-2,7′-5H-thieno[3,2-b]pyran]]			2.9 µM	121 to 123 °C		
CC1=C(C)CC2(CC(C)(C)Oc3ccsc32)SC1 (stereo not drawn) [Compound 50049, 3′,6,6′,7-Tetrahydro-4′,5,5,5′-tetramethylspiro[5H-thieno[3,2-b]pyran-7,2′-2H-thiopyran]]			~10 µM	90 to 92 °C	50%	100%
CC1(C)C=C(N2CCCC2=O)c2sc(S(=O)(=O)c3ccccc3)cc2O1 [Compound 50109, 5,5-Dimethyl-7-(2-oxo-1-pyrrolidinyl)-2-(phenylsulphonyl)-5H-thieno[3,2-b]pyran]	233%	122%	0.24 µM			
CC1(C)CC2(SCCCS2)c2sc(C#N)cc2O1 [Compound 50057, 6′,7′-Dihydro-5′,5′-dimethylspiro[1,3-dithiane-2,7′-5H-thieno[3,2-b]pyran]-2′-carbonitrile]		33%	~10 µM			98%
6′,7′-Dihyrdro-5′,5′-dimethylspiro[1,3-dithiolane-2,7′-5H-thieno[3,2-b]pyran] [Compound 50063]			~10 µM		93%	55%

From US6342517B1, “Potassium channel activators and their use” (Cambridge Bioclinical Limited, priority 1998, dated 2002)
